For series [1], the system named is Staphylococcus aureus. The experiment in a line: Bactericidal activity against Staphylococcus aureus 86 assessed as reduction in colony formation at 8 ug/ml measured at 24 hrs by time-killing assay. The format is functional, organism-based.
Series [2] deals with Staphylococcus aureus. The experiment in a line: Antibacterial activity against Staphylococcus aureus ATCC 29213 assessed as decrease in mutation prevention concentration measured after 72 hrs. The format is functional, organism-based.
Series [3] deals with Staphylococcus aureus. The experiment in a line: Antibacterial activity against methicillin-resistant Staphylococcus aureus 88 assessed as bacterial growth inhibition in presence of 50 ug/ml calcium ions by CLSI protocol based broth microdilution method. It is filed as functional. For orientation: In broth dilution the organism is exposed to a series of concentrations in liquid medium.

Series [4] has as its system Staphylococcus aureus. The series can be described thus: Antibacterial activity against methicillin-resistant Staphylococcus aureus 11 assessed as bacterial growth inhibition in presence of 50 ug/ml calcium ions by CLSI protocol based broth microdilution method. The format is functional.
The subject of series [5] is Enterococcus. The experiment in a line: Antibacterial activity against Enterococcus 60 assessed as bacterial growth inhibition in presence of 50 ug/ml calcium ions by CLSI protocol based broth microdilution method. The format is functional.
Series [6] relates to Enterococcus faecalis. The series can be described thus: Antibacterial activity against Enterococcus faecalis ATCC 29212 assessed as bacterial growth inhibition in presence of 50 ug/ml calcium ions by CLSI protocol based broth microdilution method. The format is functional.
Series [7] concerns Enterococcus faecalis. The series can be described thus: Antibacterial activity against Streptococcus faecalis assessed as bacterial growth inhibition in presence of 50 ug/ml calcium ions by CLSI protocol based broth microdilution method. It is filed as functional.
The test system of series [8] is Lipid bilayer. The series can be described thus: Binding affinity to POPC/POPG (1:1) large unilamellar vesicles assessed as change in ellipticity […] at 50 uM in presence of phosphatidylglycerol and Ca2+ ions by circular dichroism spectroscopy.
The subject of series [9] is Staphylococcus aureus. The experiment in a line: Antibacterial activity against Staphylococcus aureus ATCC 29213 assessed as bacterial growth inhibition in presence of 50 ug/ml calcium ions by CLSI protocol based broth microdilution method. It is filed as functional.
In series [10] the test system is Enterococcus. The experiment in a line: Antibacterial activity against Enterococcus 6 assessed as bacterial growth inhibition in presence of 50 ug/ml calcium ions by CLSI protocol based broth microdilution method. It is filed as functional.
Series [11] concerns Staphylococcus aureus. The series can be described thus: Antibacterial activity against methicillin-resistant Staphylococcus aureus 14 assessed as bacterial growth inhibition in presence of 50 ug/ml calcium ions by CLSI protocol based broth microdilution method. The format is functional.
The test system of series [12] is Lipid bilayer. The series can be described thus: Binding affinity to POPC large unilamellar vesicles assessed as change in ellipticity […] at 50 uM in presence of phosphatidylglycerol and Ca2+ ions by circular dichroism spectroscopy.
Series [13] concerns Staphylococcus aureus. The series can be described thus: Antibacterial activity against methicillin-resistant Staphylococcus aureus 86 assessed as bacterial growth inhibition in presence of 50 ug/ml calcium ions by CLSI protocol based broth microdilution method. The format is functional.
Series [14] deals with Lipid bilayer. The series can be described thus: Binding affinity to POPC/POPG (1:1) large unilamellar vesicles assessed as close proximity of tryptophan and kynurenine residues at 50 uM in presence of phosphatidylglycerol and Ca2+ ions by circular dichroism spectroscopy. Background: Circular dichroism is the unequal absorption of left and right circularly polarised light.

Series [15] can be described thus: Toxicity in Galleria mellonella larvae infected with Staphylococcus aureus ATCC 43300 assessed as larvae death at 50 mg/kg measured at 36 hrs post-infection. It is filed as organism-based. The settings on record: in vivo.
Series [16] deals with Lipid bilayer. The series can be described thus: Binding affinity to POPC large unilamellar vesicles assessed as close proximity of tryptophan and kynurenine residues at 50 uM in presence of phosphatidylglycerol and Ca2+ ions by circular dichroism spectroscopy.
For series [17], the system named is Lipid bilayer. The series can be described thus: Binding affinity to POPC/POPG (1:1) large unilamellar vesicles assessed as conformational changes at 50 uM in presence of phosphatidylglycerol and Ca2+ ions by circular dichroism spectroscopy.
In series [18] the test system is Staphylococcus aureus. The experiment in a line: Antibacterial activity against Staphylococcus aureus ATCC 43300 infected in Galleria mellonella larvae assessed as increase in larvae survival at 50 mg/kg measured up to 48 hrs post-infection. The format is functional, organism-based.
Series [19] deals with Lipid bilayer. The series can be described thus: Binding affinity to POPC large unilamellar vesicles assessed as conformational changes at 50 uM in presence of phosphatidylglycerol and Ca2+ ions by circular dichroism spectroscopy.

Structures are written as SMILES. The source made the active and inactive calls.

Turning to `CCCCCCCCCC(=O)N[C@@H](Cc1cn(C)c2ccccc12)C(=O)N[C@@H](CC(N)=O)C(=O)N[C@@H](CC(=O)O)C(=O)N[C@@H]1C(=O)NCC(=O)N[C@@H](CCCN)C(=O)N[C@@H](CC(=O)O)C(=O)N[C@H](C)C(=O)N[C@@H](CC(=O)O)C(=O)NCC(=O)N[C@H](CO)C(=O)N[C@@H]([C@@H](C)CC(=O)O)C(=O)N[C@@H](CC(=O)c2ccccc2N)C(=O)O[C@@H]1C`, the outcome in series [1] and in series [2] was Active.
In general, MIC refers to the smallest concentration in the dilution series that meets the test's criterion for growth inhibition. Consider `CCCCCCCCCC(=O)N[C@@H](Cc1c[nH]c2ccccc12)C(=O)N[C@@H](CC(N)=O)C(=O)N[C@@H](CC(=O)O)C(=O)N[C@@H]1C(=O)NCC(=O)N[C@@H](CCCN)C(=O)N[C@@H](CC(N)=O)C(=O)N[C@H](C)C(=O)N[C@@H](CC(N)=O)C(=O)NCC(=O)N[C@H](CO)C(=O)N[C@@H]([C@@H](C)CC(=O)O)C(=O)N[C@@H](CC(=O)c2ccccc2N)C(=O)O[C@@H]1C`, for which the MIC in series [3], in series [4], in [5], in series [6], in series [7] and in series [9] was not below 32 µg/mL in each case. In addition, the MIC in [10], in [11] and in series [13] was not below 32 µg/mL throughout. In addition, the result in series [8] and in [12] was Active.
Regarding `CCCCCCCCCC(=O)N[C@@H](Cc1c[nH]c2ccccc12)C(=O)N[C@@H](CC(N)=O)C(=O)N[C@@H](CC(=O)O)C(=O)N[C@@H]1C(=O)NCC(=O)N[C@@H](CCCN)C(=O)N[C@@H](CC(=O)O)C(=O)N[C@H](C)C(=O)N[C@@H](CCC(=O)O)C(=O)NCC(=O)N[C@H](CO)C(=O)N[C@@H]([C@@H](C)CC(=O)O)C(=O)N[C@@H](CC(=O)c2ccccc2N)C(=O)O[C@@H]1C`, the MIC in series [3], in [4], in [5], in series [6], in series [7] and in series [9] was not below 32 µg/mL each time. Besides, the MIC in series [10], in [11] and in series [13] was not below 32 µg/mL in each case. Besides, the result in series [8] and in [12] was Active.
As for `CCCCCCCCCC(=O)N[C@@H](Cc1c[nH]c2ccccc12)C(=O)N[C@H](CC(N)=O)C(=O)N[C@@H](CC(=O)O)C(=O)N[C@@H]1C(=O)NCC(=O)N[C@@H](CCCN)C(=O)N[C@@H](CC(=O)O)C(=O)N[C@H](C)C(=O)N[C@@H](CC(=O)O)C(=O)NCC(=O)N[C@H](CO)C(=O)N[C@@H]([C@H](C)CC(=O)O)C(=O)N[C@@H](CC(=O)c2ccccc2N)C(=O)O[C@@H]1C`, the minimum inhibitory concentration (MIC) in series [3] came to 0.25 µg/mL; in series [4] it was 0.5 µg/mL; in series [5], 2 µg/mL; in [6], 4 µg/mL; in series [7], 4 µg/mL; in [9], 0.25 µg/mL. Further, the MIC in series [10] was determined as 2 µg/mL; in series [11], 0.5 µg/mL; in series [13], 0.5 µg/mL. Besides, the outcome in [14], in series [16], in series [17] and in series [19] was Active. Further, in series [15], the Activity result is recorded as “Toxic”. The outcome in series [18] was inactive.
Take `CCCCCCCCCC(=O)N[C@@H](Cc1c[nH]c2ccccc12)C(=O)N[C@@H](CC(N)=O)C(=O)N[C@@H](CC(=O)O)C(=O)N[C@@H]1C(=O)NCC(=O)N[C@@H](CCCN)C(=O)N[C@@H](C)C(=O)N[C@H](C)C(=O)N[C@@H](CC(=O)O)C(=O)NCC(=O)N[C@H](CO)C(=O)N[C@@H]([C@@H](C)CC(=O)O)C(=O)N[C@@H](CC(=O)c2ccccc2N)C(=O)O[C@@H]1C`: the minimal inhibitory concentration (MIC) in [3], in series [4], in series [5], in series [6], in [7] and in [9] was not below 64 µg/mL throughout. The MIC in series [10], in series [11] and in [13] was not below 64 µg/mL in each case.

The values are drawn from ChEMBL document CHEMBL4619795, “Establishing the Structure-Activity Relationship of Daptomycin” (ACS Med Chem Lett, 2020).
